Assay results taken from PubChem BioAssay (NCI).
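Compound exposure: 48 hours, 5 concentrations, 96-well plates. TGI: total growth inhibition.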

What was measured:
Assay in all cases: growth of human tumour cells (NCI), 48 h
[1] = system: UO-31 renal
[2] = system: SK-MEL-28 melanoma
[3] = system: SK-MEL-5 melanoma
[4] = system: PC-3 prostate
[5] = system: UACC-257 melanoma
[6] = system: LOX IMVI melanoma
[7] = system: HL-60(TB) leukemia
[8] = system: K-562 leukemia
[9] = system: OVCAR-8 ovarian
[10] = system: SF-295 CNS
[11] = system: SK-OV-3 ovarian
[12] = system: SR leukemia
[13] = system: HS 578T breast
[14] = system: 786-0 renal
[15] = system: CAKI-1 renal
[16] = system: RPMI-8226 leukemia
[17] = system: SK-MEL-2 melanoma
[18] = system: RXF 393 renal
[19] = system: SNB-75 CNS
[20] = system: COLO 205 colon
[21] = system: HT29 colon
[22] = system: MDA-MB-435
[23] = system: HCT-15 colon
[24] = system: SNB-19 CNS
[25] = system: BT-549 breast
[26] = system: ACHN renal
[27] = system: NCI-H226 lung
[28] = system: HOP-62 NSCLC
[29] = system: HCT-116 colon
[30] = system: OVCAR-4 ovarian
[31] = system: MOLT-4 leukemia
[32] = system: DU-145 prostate
[33] = system: EKVX NSCLC
[34] = system: MDA-N
[35] = system: UACC-62 melanoma
[36] = system: MCF7 breast
[37] = system: SW-620 colon
[38] = system: NCI-H522 lung
[39] = system: KM12 colon
[40] = system: T-47D breast
[41] = system: A549 NSCLC
[42] = system: NCI-H23 lung
[43] = system: M14 melanoma
[44] = system: HOP-92 NSCLC
[45] = system: A498 renal
[46] = system: CCRF-CEM leukemia
[47] = system: SN12C renal
[48] = system: SF-268 CNS
[49] = system: NCI/ADR-RES ovarian
[50] = system: IGROV1 ovarian
[51] = system: OVCAR-5 ovarian
[52] = system: U251 CNS
[53] = system: MALME-3M melanoma
[54] = system: TK-10 renal
[55] = system: OVCAR-3 ovarian
[56] = system: MDA-MB-231 breast

SMILES: Cc1ccc(SCN2CCCCC2)cc1 (tested in a mixture with another compound)
- TGI [1]: 30.2 µM
- TGI [2]: 29.7 µM
- TGI [3]: 12.5 µM
- TGI [4]: 30.2 µM
- TGI [5]: 30.6 µM
- TGI [6]: 14.3 µM
- TGI [7]: 4.98 µM
- TGI [8]: 46.3 µM
- TGI [9]: > 100 µM
- TGI [10]: 33.1 µM
- TGI [11]: 29.7 µM
- TGI [12]: 25.6 µM
- TGI [13]: 37.1 µM
- TGI [14]: 29.9 µM
- TGI [15]: 26.3 µM
- TGI [16]: 29.5 µM
- TGI [17]: 31.1 µM
- TGI [18]: 22.3 µM
- TGI [19]: 22.5 µM
- TGI [20]: 16 µM
- TGI [21]: 31.5 µM
- TGI [22]: 25.6 µM
- TGI [23]: 32 µM
- TGI [24]: 49.9 µM
- TGI [25]: 15 µM
- TGI [26]: 28.7 µM
- TGI [27]: 36.7 µM
- TGI [28]: 37.7 µM
- TGI [29]: 23.4 µM
- TGI [30]: 43.8 µM
- TGI [31]: 16.2 µM
- TGI [32]: 28.1 µM
- TGI [33]: 39.2 µM
- TGI [34]: 22.7 µM
- TGI [35]: 27.7 µM
- TGI [36]: 59.4 µM
- TGI [37]: 56.5 µM
- TGI [38]: 8.86 µM
- TGI [39]: 26.5 µM
- TGI [40]: > 100 µM
- TGI [41]: 72.8 µM
- TGI [42]: 22.9 µM
- TGI [43]: 37.3 µM
- TGI [44]: 31 µM
- TGI [45]: 14.7 µM
- TGI [46]: 6.59 µM
- TGI [47]: 31.4 µM
- TGI [48]: 20.6 µM
- TGI [49]: 57.5 µM
- TGI [50]: 10.9 µM
- TGI [51]: 25.8 µM
- TGI [52]: 23.2 µM
- TGI [53]: 31.3 µM
- TGI [54]: 45.3 µM
- TGI [55]: 30 µM
- TGI [56]: 27.7 µM
